Measurements reported in PubChem BioAssay (NCI).
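How tested: cells in 96-well plates exposed to compound for 48 hours at five concentrations. Here, GI50 denotes the concentration required for 50% inhibition of growth. TGI: total growth inhibition.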 Where a SMILES comes first, the peptide text is derived from it. [ ]: non-standard residue; d: D form. ξ: configuration not given here. ξLac(3-iPr) = CC(C)CC(O)C(=O)O; NMeV = CN[CH](C(=O)O)C(C)C; NMeA = CN[CH](C)C(=O)O; βAla = NCCC(=O)O

Tests used:
Experiment in all cases: inhibition of tumour cell growth, NCI panel, 48 h
HCT-116 colon = test system: HCT-116 colon
MDA-MB-435 = test system: MDA-MB-435
MOLT-4 leukemia = test system: MOLT-4 leukemia
IGROV1 ovarian = test system: IGROV1 ovarian
HCT-15 colon = test system: HCT-15 colon
SR leukemia = test system: SR leukemia
BT-549 breast = test system: BT-549 breast
786-0 renal = test system: 786-0 renal
DMS 114 small cell lung = test system: DMS 114 small cell lung
M19-MEL melanoma = test system: M19-MEL melanoma
DMS 273 small cell lung = test system: DMS 273 small cell lung
HOP-18 NSCLC = test system: HOP-18 NSCLC
SNB-78 CNS = test system: SNB-78 CNS
KM20L2 colon = test system: KM20L2 colon
XF 498 CNS = test system: XF 498 CNS

CO/N=C\c1cc(O)c(O)c(/C=N/OC)c1
TGI (HCT-116 colon): > 100 µM
TGI (MDA-MB-435): > 100 µM
TGI (MOLT-4 leukemia): > 100 µM
TGI (IGROV1 ovarian): > 100 µM
TGI (HCT-15 colon): > 100 µM
TGI (SR leukemia): > 100 µM
TGI (BT-549 breast): > 100 µM

O=C1C=CC(=O)c2c(O)c(Br)c(Br)c(O)c21
TGI (786-0 renal): 3.32 µM
TGI (HCT-116 colon): 8.57 µM
TGI (MDA-MB-435): 8.19 µM
TGI (MOLT-4 leukemia): 0.549 µM
TGI (IGROV1 ovarian): 29.7 µM
TGI (HCT-15 colon): 4.83 µM
TGI (SR leukemia): 0.289 µM
TGI (BT-549 breast): 27.1 µM

C[C@]12CC[C@@H]3c4ccc(O)cc4CC[C@H]3[C@@H]1CC[C@@H]2OC(=O)CCc1ccccc1
TGI (786-0 renal): > 100 µM
TGI (HCT-116 colon): 48.4 µM
TGI (MDA-MB-435): 45.1 µM
TGI (MOLT-4 leukemia): 40.3 µM
TGI (IGROV1 ovarian): 43.9 µM
TGI (HCT-15 colon): 33 µM
TGI (BT-549 breast): 34.2 µM

Cc1ccc(C2COc3cc(O)c(O)cc3C2)cc1 (stereo unspecified)
TGI (HCT-116 colon): 23.7 µM
TGI (DMS 114 small cell lung): 37 µM
TGI (MOLT-4 leukemia): 18.6 µM
TGI (IGROV1 ovarian): 38.5 µM
TGI (HCT-15 colon): 31.8 µM
TGI (M19-MEL melanoma): 66.1 µM
TGI (DMS 273 small cell lung): 78.1 µM
TGI (HOP-18 NSCLC): 98.2 µM
TGI (SNB-78 CNS): 221 µM
TGI (KM20L2 colon): 164 µM

COc1cc(C(=O)CC2OC(=O)C(Cl)=C2Cl)ccc1Cl (stereo unspecified)
TGI (HCT-116 colon): > 100 µM
TGI (DMS 114 small cell lung): > 100 µM
TGI (MOLT-4 leukemia): > 100 µM
TGI (IGROV1 ovarian): > 100 µM
TGI (HCT-15 colon): > 100 µM
TGI (M19-MEL melanoma): > 100 µM
TGI (DMS 273 small cell lung): > 100 µM
TGI (HOP-18 NSCLC): > 100 µM
TGI (SR leukemia): > 100 µM
TGI (SNB-78 CNS): > 100 µM
TGI (XF 498 CNS): > 100 µM
TGI (KM20L2 colon): > 100 µM

O=C(c1ccccc1)C1C(c2ccccc2)N1S(=O)(=O)c1ccccc1 (stereo unspecified)
TGI (HCT-116 colon): > 100 µM
TGI (MDA-MB-435): > 100 µM
TGI (MOLT-4 leukemia): > 100 µM
TGI (IGROV1 ovarian): > 100 µM
TGI (HCT-15 colon): > 100 µM
TGI (BT-549 breast): > 100 µM

Cc1nc2[nH]ncn2c(=O)c1CCCl
TGI (HCT-116 colon): > 10 µM
TGI (MDA-MB-435): > 10 µM
TGI (MOLT-4 leukemia): > 10 µM
TGI (IGROV1 ovarian): > 10 µM
TGI (HCT-15 colon): > 10 µM
TGI (SR leukemia): > 10 µM

N#C/C(=C\c1ccc(Br)cc1)n1nnc2cc(Cl)c(Cl)cc21
GI50 (HCT-116 colon): 1.43 µM
TGI (HCT-116 colon): 3.08 µM
GI50 (MOLT-4 leukemia): 2.51 µM
TGI (MOLT-4 leukemia): > 100 µM
GI50 (IGROV1 ovarian): 2 µM
TGI (IGROV1 ovarian): 4.53 µM
GI50 (HCT-15 colon): 1.67 µM
TGI (HCT-15 colon): 5.17 µM
GI50 (SR leukemia): 1.36 µM
TGI (SR leukemia): > 100 µM

CCC(C)C1NC(=O)C2CCCN2C(=O)C(CC(C)C)OC(=O)CCNC(=O)C(C)N(C)C(=O)C(C(C)C)N(C)C1=O (stereo unspecified) (cyclo([ξLac(3-iPr)]PI[NMeV][NMeA][βAla]); configuration not given here)
TGI (786-0 renal): 17.6 µM
TGI (HCT-116 colon): 19.6 µM
TGI (MDA-MB-435): 13.5 µM
TGI (MOLT-4 leukemia): 21 µM
TGI (IGROV1 ovarian): > 100 µM
TGI (HCT-15 colon): > 100 µM
TGI (SR leukemia): > 56.5 µM
TGI (BT-549 breast): > 100 µM

O=C(c1ccccc1)c1nc2ccc(Cl)cc2c2c1CCCO2
TGI (HCT-116 colon): > 100 µM
TGI (DMS 114 small cell lung): > 100 µM
TGI (MOLT-4 leukemia): > 100 µM
TGI (IGROV1 ovarian): > 100 µM
TGI (HCT-15 colon): > 100 µM
TGI (M19-MEL melanoma): > 100 µM
TGI (DMS 273 small cell lung): > 100 µM
TGI (HOP-18 NSCLC): > 100 µM
TGI (SR leukemia): > 100 µM
TGI (SNB-78 CNS): > 100 µM
TGI (XF 498 CNS): > 100 µM
TGI (KM20L2 colon): > 100 µM
